Assay results as given in patent US6709830B2, “Methods for modulating the activation of a lymphocyte expressed G protein coupled receptor involved in cell proliferation, autoimmunity and inflammation” (The Regents of the University of California, priority 1997, dated 2004).
Entries after “also recorded” stand apart in the source; their conditions may differ.

Tests used:
G2A = target: T1, G2A (Mus musculus, UniProt Q9Z282); assay: Calcium assay ([Ca2+]i, Fura-2) in G2A.GFP transfected MCF 10A cells; type: cell-based
T1 construct: expressed in transfected cells; host or cells: MCF 10A (human breast epithelial cells, no endogenous G2A), plasmid pEXV3 G2A.GFP
T1 sequence (Q9Z282 1-382): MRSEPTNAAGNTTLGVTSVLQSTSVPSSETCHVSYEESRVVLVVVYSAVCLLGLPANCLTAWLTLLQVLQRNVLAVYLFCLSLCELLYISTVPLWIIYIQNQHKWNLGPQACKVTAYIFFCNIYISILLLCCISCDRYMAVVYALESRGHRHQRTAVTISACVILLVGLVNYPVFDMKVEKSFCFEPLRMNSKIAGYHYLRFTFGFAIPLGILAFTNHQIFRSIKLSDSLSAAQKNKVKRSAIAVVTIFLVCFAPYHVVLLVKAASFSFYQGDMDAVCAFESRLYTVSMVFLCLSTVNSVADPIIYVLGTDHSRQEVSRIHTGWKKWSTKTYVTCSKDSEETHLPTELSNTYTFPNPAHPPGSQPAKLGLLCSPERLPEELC
Description: MCF 10A cells were cultured in specialised glass-bottom dishes (Bioptech, Inc., Butler, Pa.) and loaded with Fura-2/AM ([…]; Molecular Probes) at 37° C. for 30 minutes in HEPES buffered saline (pH 7.4) containing 125 mM NaCl, 5 mM KCl, 1.2 mM MgSO4, 11 mM glucose, 1.8 mM CaCl2, 25 mM HEPES, 0.2% BSA. Loaded cells were washed, placed in HEPES buffeted saline without BSA, and incubated for 30 minutes at ambient temperature ensure dye hydrolysis by cytosolic esterases. Using a dual-wavelength spectrofluorometer (RFK-6002, Photon Technology Int'l, So. Brunswick, N.J.) coupled to an inverted fluorescence microscope (Olympus, IX-70, Lake Success, N.Y.), GFP-positive cells were identified using an excitation wavelength of 488 nm, a dichroic 505 nm long-pass and an emitter bandpass of 535 nm (Chroma Technology, Brattleboro, Vt.). [Ca^2+], measurements were performed on individual GFP-positive cells at excitation wavelengths of 340 nm and 380 nm, and an emission wavelength of 510 nm. Prior to data acquisition, background fluorescence (areas without cells) was measured and automatically subtracted from subsequent measurements. Agonists were diluted in HEPES buffered saline and solution changes accomplished by rapidly aspirating the buffer and replacing it with HEPES buffered saline containing the specific agonist. Fura-2 fluorescence signals (340 nm, 380 nm and the 340/380 ratio) originating from individual GFP-positive cells were continuously monitored at a sampling frequency of 25 Hz and collected using a software package from Photon Technology International (Felix™). Conversion of the 340 nm/380 nm ratio value into [Ca^2+]i was estimated by comparing the cellular fluorescence ratio with ratios acquired using Fura-2 (free acid) in buffers containing known Ca^2+ concentrations. [Ca^2+]i was then calculated as described by Grynkiewicz, et al (Grynkiewicz, G, et al, J Biol Chem, 260: pp3440-3450, 1985). All assays were performed in assay buffers containing 1 mM EGTA to exclude measurement of calcium influx.
To address whether G2A is a lysophospholipid receptor, we examined signalling events in cells ectopically expressing G2A as functional correlates of receptor activation. […] [Ca^2+]i measurements were performed in MCF 10A cells transfected with plasmids encoding green fluorescent protein (GFP) tagged G2A (pEXV3 G2A.GFP) (Kabarowski, J H S, et al, PNAS, 97: pp12109-12114, 2000) or GFP as described (Yan Xu and Derek S. Damron, Methods in Molecular Medicine, 39: Ovarian Cancer: Methods and Protocols, pp611-619, 2000). […] Similarly, dose-dependent responses of G2A.GFP transfected cells to SPC were observed, with an EC50 of approximately 0.4 μM (FIG. 4B). […] Responses to these agonists were not affected by G2A.GFP expression (FIG. 4A, middle and lower panels).

G2A.GFP fusion receptor = target: T2, G2A.GFP fusion receptor (Mus musculus, UniProt Q9Z282); assay: Internalisation of G2A.GFP in HEK 293 G2A.GFP cells (confocal microscopy); type: cell-based; conditions: 2 hours, serum starved HEK 293 G2A.GFP cells
T2 construct: expressed in transfected cells; host or cells: HEK 293 cells infected with amphotropic MSCV G2A.GFP retrovirus
T2 sequence (Q9Z282 1-382): T1 sequence (Q9Z282 1-382)
Description: Agonist dependent receptor internalisation is a feature of GPCRs. G2A.GFP expressing HEK 293 cells (HEK 293 G2A.GFP) were generated by infection with amphotropic MSCV G2A.GFP retroviruses. In serum starved HEK 293 G2A.GFP cells, G2A.GFP is expressed predominantly on the plasma membrane. LPC (0.1 μM), as well as SPC (1 μM), induced internalisation of G2A.GFP in over 90% of cells (FIG. 6). Neither LPA, S-1-P or PAF induced G2A internalisation, which is consistent with LPC acting as a specific ligand for G2A. Treatment of HEK 293 G2A.GFP cells with SPC at low concentrations (0.1 μM) induced receptor internalisation in fewer cells (<50%).
HEK 293 G2A.GFP cells were seeded onto glass coverslips and subsequently serum starved for 16-24 hours prior to treatment with lipids. Two hours following lipid treatment, coverslips were washed with cold PBS and fixed with PBS/4% paraformaldehyde. Subcellular localisation of G2A.GFP was visualised under a confocal fluorescence microscope with a 60× oil immersion lens.

EC50 (G2A; G2A.GFP transfected MCF 10A cells, 1 mM EGTA in buffer, read-out: EC50 of dose-dependent increase in [Ca2+]i): ~100 nM
Substance: lysophosphatidylcholine [LPC]
transient increase in [Ca2+]i (G2A; G2A.GFP transfected MCF 10A cells, LPC 0.1 μM, SPC 0.1 μM, LPA 1 μM, PAF 0.1 μM, ATP 20 μM): induced a transient increase; also recorded: induce transient [Ca^2+], increases
desensitisation to subsequent stimulation with LPC or SPC (1 μM) (G2A; pretreatment 5 minutes with LPC 1 μM or SPC 10 μM (b23 prints SPC 1.0 μM), G2A.GFP-transfected MCF 10A cells): induced homologous and heterologous desensitisation
induction of G2A internalisation (G2A.GFP fusion receptor): internalisation of G2A.GFP induced by LPC
